Laboratory results as given in US20210179686A1, “CELL SORTING SYSTEMS AND METHODS OF USE” (MEMORIAL SLOAN-KETTERING CANCER CENTER, priority 2018, published 2021).

Key:
FLAG-RR12EE345L = test: capture and presentation of secreted FLAG leucine zipper by mutant blocking leucine zippers in C1498 cells; type: cell-based; conditions: FIG. 20
Text: A series of mutations were made in the “g” residues of the blocking leucine zipper to reduce heterodimerization affinity between the capture leucine zipper and the linked blocking leucine zipper. The following six mutants were made: 1N mutant: E1R2EE345L (having the amino acid sequence set forth in SEQ ID NO: 98), 1M mutant: RR123E45L (having the amino acid sequence set forth in SEQ ID NO: 99), 2N mutant: EE12345L (having the amino acid sequence set forth in SEQ ID NO: 102), 2M mutant: RR1234E5L (having the amino acid sequence set forth in SEQ ID NO: 103), 3N mutant: EE12R3E45L (having the amino acid sequence set forth in SEQ ID NO: 106), and 3C mutant: RR12345L (having the amino acid sequence set forth in SEQ ID NO: 107).
C1498 cells were co-transduced with the FLAG-RR12EE345L GFP vector and one of the six mutants as part of RR12EE345L linker EE12RR345L BFP vector constructs. […] Thus, mutating the […] leucine zipper at “g” position residues to include repulsive amino acid interactions can reduce the degree of blocking by the linked […]-based mutant leucine zipper.

iCaspase 9 = molecular target: T1, iCaspase 9 (Homo sapiens, UniProt P55211, Q221R); test: activation of iCaspase 9 suicide gene by chemical inducer of dimerization in sorted dual-transduced T cells; type: cell-based, mouse
T1 construct: […]; expressed in transfected cells
T1 sequence (P55211 with tags, fused parts or gaps Q221R): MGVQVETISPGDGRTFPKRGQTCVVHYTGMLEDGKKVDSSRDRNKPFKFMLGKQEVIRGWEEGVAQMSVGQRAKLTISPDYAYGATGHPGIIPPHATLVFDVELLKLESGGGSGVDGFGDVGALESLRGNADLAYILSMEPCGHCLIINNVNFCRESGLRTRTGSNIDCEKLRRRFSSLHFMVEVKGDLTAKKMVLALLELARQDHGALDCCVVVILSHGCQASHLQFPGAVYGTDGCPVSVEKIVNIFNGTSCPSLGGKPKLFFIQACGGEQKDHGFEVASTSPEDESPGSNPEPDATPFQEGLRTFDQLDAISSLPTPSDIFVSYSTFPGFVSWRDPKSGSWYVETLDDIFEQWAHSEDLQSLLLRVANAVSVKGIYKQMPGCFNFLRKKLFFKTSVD
Experimental: FIG. 5 depicts purification and testing of dual-transduced cells with iCaspase 9 and CD20-CAR. T cells comprising RR12EE345L-FLAG iCaspase 9 (vector 1) and RR12EE345L-linker-EE12RR345L-Thy1.1 CD20-CAR (vector 2) were incubated with EL4-CD19 and EL4-CD20 targets in the presence or absence of chemical inducer of dimerization (CID).
IL-18 secretion was assessed by ELISA. Interferon gamma secretion was assessed by cytometric bead array.

CD20 mimotope = test: antibody plus complement depletion of double transduced C1498 cells; type: cell-based; conditions: RQR-RR12EE345L plus capture leucine zipper, in the presence of complement, FIG. 18
Sequence of CD20 mimotope (as listed by the source): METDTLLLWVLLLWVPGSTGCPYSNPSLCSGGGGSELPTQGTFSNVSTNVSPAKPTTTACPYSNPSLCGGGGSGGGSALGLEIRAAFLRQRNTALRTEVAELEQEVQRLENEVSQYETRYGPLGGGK
Experimental: Next, C1498 cells were double transduced with capture leucine zippers as shown in FIG. 18 and a second vector encoding the tandem CD20 mimotope/CD34 leucine zipper tag (RQR-RR12EE345L). Subsequently, the cells were incubated with anti-CD20 antibody Rituximab or irrelevant antibody Cetuximab in the presence of complement.

Sequence of FLAG-RR12EE345L (as listed by the source): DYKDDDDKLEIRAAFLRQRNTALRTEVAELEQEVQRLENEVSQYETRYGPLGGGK

## 3N mutant: blocking leucine zipper mutant, amino acid sequence SEQ ID NO: 106 (LEIEAAFLRQENTALRTRVAELEQEVQRLENEVSQYETRYGPLGGGK)
FLAG-RR12EE345L; C1498 cells co-transduced with FLAG-RR12EE345L GFP vector
  presentation of secreted leucine zipper: enhanced presentation of secreted leucine zipper
FLAG-RR12EE345L; double transduced and single-transduced capture-zipper-only C1498 cells
  FLAG binding: increased FLAG binding in double transduced cells (intracellular pairing), but also in single-transduced capture leucine zipper-only cells (extracellular pairing)

## CC[C@H](C(=O)N1CCCC[C@H]1C(=O)O[C@H](CCc1ccc(OC)c(OC)c1)c1cccc(OCC(=O)NCC(CNC(=O)COc2cccc([C@@H](CCc3ccc(OC)c(OC)c3)OC(=O)[C@@H]3CCCCN3C(=O)[C@@H](CC)c3cc(OC)c(OC)c(OC)c3)c2)CN(C)C)c1)c1cc(OC)c(OC)c(OC)c1 [chemical inducer of dimerization]
iCaspase 9; T cells with iCaspase 9 on one vector and CD20-CAR on the other, FIG. 5
  induction of T cell apoptosis: > 90%
iCaspase 9; sorted cells with two vectors expressing CD19-CAR, CD20-CAR and iCaspase9, optionally IL-18, FIG. 6
  cell death: about 90%

## Rituximab
CD20 mimotope
  depletion of cells: selective depletion of double transduced cells
